Key:
A549 = experiment: In vitro growth inhibition of compound was determined against A549/ATCC cell lines of non-small cell lung cancer; type: functional; conditions: Homo sapiens
786-0 = experiment: In vitro growth inhibition of compound was determined against […] cell lines of Renal cancer; type: functional; conditions: Homo sapiens
BT-549 = experiment: In vitro growth inhibition of compound was determined against BT-549 cell lines of Breast cancer; type: functional; conditions: Homo sapiens
COLO 205 = experiment: In vitro growth inhibition of compound was determined against COLO-205 cell lines of colon cancer; type: functional; conditions: Homo sapiens
CCRF-CEM = experiment: In vitro growth inhibition of compound was determined against CCRF-CEM cell lines of Leukemia; type: functional; conditions: Homo sapiens
CAKI-1 = experiment: In vitro growth inhibition of compound was determined against CAKI-1 cell lines of Renal cancer; type: functional; conditions: Homo sapiens
DU-145 = experiment: In vitro growth inhibition of compound was determined against DU-145 cell lines of Prostate cancer; type: functional; conditions: Homo sapiens
HCT-15 = experiment: In vitro growth inhibition of compound was determined against HCT-15 cell lines of colon cancer; type: functional; conditions: Homo sapiens
HOP-92 = experiment: In vitro growth inhibition of compound was determined against HOP-92 cell lines of non-small cell lung cancer; type: functional; conditions: Homo sapiens
HL-60 = experiment: In vitro growth inhibition of compound was determined against HL-60(TB) cell lines of Leukemia; type: functional; conditions: Homo sapiens
HCT-116 = experiment: In vitro growth inhibition of compound was determined against HCT116 cell lines of colon cancer; type: functional; conditions: Homo sapiens
HT-29 = experiment: In vitro growth inhibition of compound was determined against HT-29 cell lines of colon cancer; type: functional; conditions: Homo sapiens
HCC 2998 = experiment: In vitro growth inhibition of compound was determined against HCC2998 cell lines of colon cancer; type: functional; conditions: Homo sapiens
Hs-578T = experiment: In vitro growth inhibition of compound was determined against Hs 578.T cell lines of Breast cancer; type: functional; conditions: Homo sapiens
IGROV-1 = experiment: In vitro growth inhibition of compound was determined against IGROVI cell lines of Ovarian cancer; type: functional; conditions: Homo sapiens
K562 = experiment: In vitro growth inhibition of compound was determined against K-562 cell lines of Leukemia; type: functional; conditions: Homo sapiens
KM12 = experiment: In vitro growth inhibition of compound was determined against KM12 cell lines of colon cancer; type: functional; conditions: Homo sapiens
MOLT-4 = experiment: In vitro growth inhibition of compound was determined against MOLT-4 cell lines of Leukemia; type: functional; conditions: Homo sapiens
LOX IMVI = experiment: In vitro growth inhibition of compound was determined against LOX IMVI cell lines of Melanoma; type: functional; conditions: Homo sapiens
MDA-MB-435 = experiment: In vitro growth inhibition of compound was determined against MDA-MB-435 cell lines of Breast cancer; type: functional; conditions: Homo sapiens
MDA-MB-231 = experiment: In vitro growth inhibition of compound was determined against MDA-MB-231/ATCC cell lines of Breast cancer; type: functional; conditions: Homo sapiens
MDA-N = experiment: In vitro growth inhibition of compound was determined against MDA-Ncell lines of Breast cancer; type: functional; conditions: Homo sapiens
M14 = experiment: In vitro growth inhibition of compound was determined against M14 cell lines of Melanoma; type: functional; conditions: Homo sapiens
Malme-3M = experiment: In vitro growth inhibition of compound was determined against MALME-3M cell lines of Melanoma; type: functional; conditions: Homo sapiens
MCF7 = experiment: In vitro growth inhibition of compound was determined against MCF-7 cell lines of Breast cancer; type: functional; conditions: Homo sapiens
NCI-H522 = experiment: In vitro growth inhibition of compound was determined against NCI-H522 cell lines of non-small cell lung cancer; type: functional; conditions: Homo sapiens
NCI-H226 = experiment: In vitro growth inhibition of compound was determined against NCI-H226 cell lines of non-small cell lung cancer; type: functional; conditions: Homo sapiens
NCI/ADR-RES = experiment: In vitro growth inhibition of compound was determined against NCI/ADR-RES cell lines of Breast cancer; type: functional; conditions: Homo sapiens
OVCAR-3 = experiment: In vitro growth inhibition of compound was determined against OVCAR-3 cell lines of Ovarian cancer; type: functional; conditions: Homo sapiens
OVCAR-8 = experiment: In vitro growth inhibition of compound was determined against OVCAR-8 cell lines of Ovarian cancer; type: functional; conditions: Homo sapiens
OVCAR-4 = experiment: In vitro growth inhibition of compound was determined against OVCAR-4 cell lines of Ovarian cancer; type: functional; conditions: Homo sapiens
PC-3 = experiment: In vitro growth inhibition of compound was determined against PC-3 cell lines of Prostate cancer; type: functional; conditions: Homo sapiens
RXF 393 = experiment: In vitro growth inhibition of compound was determined against RXF393 cell lines of Renal cancer; type: functional; conditions: Homo sapiens
RPMI-8226 = experiment: In vitro growth inhibition of compound was determined against RPMI-8226 cell lines of Leukemia; type: functional; conditions: Homo sapiens
SF-268 = experiment: In vitro growth inhibition of compound was determined against SF-268 cell lines of CNS cancer; type: functional; conditions: Homo sapiens
SW-620 = experiment: In vitro growth inhibition of compound was determined against SW-620 cell lines of colon cancer; type: functional; conditions: Homo sapiens
SR = experiment: In vitro growth inhibition of compound was determined against SR cell lines of Leukemia; type: functional; conditions: Homo sapiens
SN12C = experiment: In vitro growth inhibition of compound was determined against SN12C cell lines of Renal cancer; type: functional; conditions: Homo sapiens
SF-295 = experiment: In vitro growth inhibition of compound was determined against SF-295 cell lines of CNS cancer; type: functional; conditions: Homo sapiens
SNB-75 = experiment: In vitro growth inhibition of compound was determined against SNB-75 cell lines of CNS cancer; type: functional; conditions: Homo sapiens
SK-MEL-28 = experiment: In vitro growth inhibition of compound was determined against SK-MEL-28 cell lines of Melanoma; type: functional; conditions: Homo sapiens
SK-MEL-5 = experiment: In vitro growth inhibition of compound was determined against SK-MEL-5 cell lines of Melanoma; type: functional; conditions: Homo sapiens
TK-10 = experiment: In vitro growth inhibition of compound was determined against TK-10 cell lines of Renal cancer; type: functional; conditions: Homo sapiens
UACC-257 = experiment: In vitro growth inhibition of compound was determined against UACC-257 cell lines of Melanoma; type: functional; conditions: Homo sapiens
UO-31 = experiment: In vitro growth inhibition of compound was determined against UO-31 cell lines of Renal cancer; type: functional; conditions: Homo sapiens
U-251 = experiment: In vitro growth inhibition of compound was determined against U251 cell lines of CNS cancer; type: functional; conditions: Homo sapiens
ACHN = experiment: In vitro growth inhibition of compound was determined against ACHN cell lines of Renal cancer; type: functional; conditions: Homo sapiens
HOP-62 = experiment: In vitro growth inhibition of compound was determined against HOP-62 cell lines of non-small cell lung cancer; type: functional; conditions: Homo sapiens
SF-539 = experiment: In vitro growth inhibition of compound was determined against SF-539 cell lines of CNS cancer; type: functional; conditions: Homo sapiens
Carbonic anhydrase 2 = Carbonic anhydrase 2 (Homo sapiens, UniProt P00918); experiment: Binding affinity of compound against human Carbonic anhydrase II

## CCN(CC)C(=S)SS(=O)(=O)c1ccccc1[N+](=O)[O-]
A549
  GI50: 3 µM
786-0
  GI50: 19 µM
BT-549
  GI50: 26 µM
COLO 205
  GI50: 28 µM
CCRF-CEM
  GI50: 2.5 µM
CAKI-1
  GI50: 17 µM
DU-145
  GI50: 19 µM
HCT-15
  GI50: 34 µM
HOP-92
  GI50: 14 µM
HL-60
  GI50: 0.2 µM
HCT-116
  GI50: 15 µM
HT-29
  GI50: 14 µM
HCC 2998
  GI50: 24 µM
Hs-578T
  GI50: 29 µM
IGROV-1
  GI50: 0.5 µM
K562
  GI50: 11 µM
KM12
  GI50: 12 µM
MOLT-4
  GI50: 0.4 µM
LOX IMVI
  GI50: 16 µM
MDA-MB-435
  GI50: 18 µM
MDA-MB-231
  GI50: 16 µM
MDA-N
  GI50: 19 µM
M14
  GI50: 11 µM
Malme-3M
  GI50: 10 µM
MCF7
  GI50: 25 µM
NCI-H522
  GI50: 0.08 µM
NCI-H226
  GI50: 36 µM
NCI/ADR-RES
  GI50: 30 µM
OVCAR-3
  GI50: 22 µM
OVCAR-8
  GI50: 18 µM
OVCAR-4
  GI50: 23 µM
PC-3
  GI50: 54 µM
RXF 393
  GI50: 15 µM
RPMI-8226
  GI50: 15 µM
SF-268
  GI50: 26 µM
SW-620
  GI50: 15 µM
SR
  GI50: 0.3 µM
SN12C
  GI50: 18 µM
SF-295
  GI50: 32 µM
SNB-75
  GI50: 76 µM
SK-MEL-28
  GI50: 13 µM
SK-MEL-5
  GI50: 3 µM
TK-10
  GI50: 29 µM
UACC-257
  GI50: 17 µM
UO-31
  GI50: 13 µM
U-251
  GI50: 13 µM
ACHN
  GI50: 24 µM
HOP-62
  GI50: 20 µM

## CCN(CC)C(=S)SS(=O)(=O)c1ccc([N+](=O)[O-])cc1
A549
  GI50: 1 µM
786-0
  GI50: 16 µM
BT-549
  GI50: 36 µM
COLO 205
  GI50: 19 µM
CAKI-1
  GI50: 18 µM
DU-145
  GI50: 27 µM
HCT-15
  GI50: 52 µM
HOP-92
  GI50: 4 µM
HCT-116
  GI50: 5 µM
HT-29
  GI50: 22 µM
HCC 2998
  GI50: 94 µM
Hs-578T
  GI50: > 100 µM
K562
  GI50: 19 µM
KM12
  GI50: 11 µM
LOX IMVI
  GI50: 17 µM
MDA-MB-435
  GI50: 23 µM
MDA-MB-231
  GI50: 26 µM
MDA-N
  GI50: 30 µM
M14
  GI50: 15 µM
Malme-3M
  GI50: 14 µM
MCF7
  GI50: 6 µM
NCI-H522
  GI50: 0.02 µM
NCI-H226
  GI50: 83 µM
NCI/ADR-RES
  GI50: 48 µM
OVCAR-3
  GI50: 35 µM
OVCAR-8
  GI50: 20 µM
OVCAR-4
  GI50: 45 µM
RXF 393
  GI50: 16 µM
RPMI-8226
  GI50: 12 µM
SF-268
  GI50: > 100 µM
SW-620
  GI50: 18 µM
SF-539
  GI50: 20 µM
SR
  GI50: 0.1 µM
SN12C
  GI50: 27 µM
SF-295
  GI50: 59 µM
SNB-75
  GI50: 77 µM
SK-MEL-28
  GI50: 19 µM
SK-MEL-5
  GI50: 2 µM
TK-10
  GI50: 43 µM
UACC-257
  GI50: 24 µM
UO-31
  GI50: 21 µM
U-251
  GI50: 14 µM
ACHN
  GI50: 36 µM
HOP-62
  GI50: 32 µM

## NS(=O)(=O)c1ccc(CNSC(=S)N2CCOCC2)cc1
Carbonic anhydrase 2
  Ki: 0.035 µM

## CCN(CC)C(=S)SS(=O)(=O)c1ccc(N)cc1
A549
  GI50: 7 µM
786-0
  GI50: 3 µM
BT-549
  GI50: > 100 µM
COLO 205
  GI50: > 100 µM
CCRF-CEM
  GI50: > 100 µM
CAKI-1
  GI50: 22 µM
DU-145
  GI50: > 100 µM
HCT-15
  GI50: > 100 µM
HOP-92
  GI50: 5 µM
HL-60
  GI50: > 100 µM
HCT-116
  GI50: > 100 µM
HCC 2998
  GI50: 8 µM
Hs-578T
  GI50: 83 µM
IGROV-1
  GI50: 5 µM
K562
  GI50: 34 µM
KM12
  GI50: 22 µM
MOLT-4
  GI50: 2 µM
LOX IMVI
  GI50: > 100 µM
MDA-MB-435
  GI50: > 100 µM
MDA-MB-231
  GI50: > 100 µM
MDA-N
  GI50: 65 µM
M14
  GI50: 63 µM
Malme-3M
  GI50: 46 µM
MCF7
  GI50: 5 µM
NCI-H522
  GI50: 1 µM
NCI-H226
  GI50: 98 µM
NCI/ADR-RES
  GI50: > 100 µM
OVCAR-3
  GI50: > 100 µM
OVCAR-8
  GI50: > 100 µM
OVCAR-4
  GI50: > 100 µM
PC-3
  GI50: 90 µM
RXF 393
  GI50: 22 µM
RPMI-8226
  GI50: 22 µM
SF-268
  GI50: > 100 µM
SW-620
  GI50: > 100 µM
SF-539
  GI50: 21 µM
SR
  GI50: 3 µM
SN12C
  GI50: > 100 µM
SF-295
  GI50: > 100 µM
SNB-75
  GI50: 48 µM
SK-MEL-28
  GI50: > 100 µM
SK-MEL-5
  GI50: 13 µM
TK-10
  GI50: > 100 µM
UACC-257
  GI50: > 100 µM
UO-31
  GI50: 80 µM
U-251
  GI50: > 100 µM
ACHN
  GI50: 61 µM
HOP-62
  GI50: 33 µM

From ChEMBL document CHEMBL1133283, “Arylsulfonyl-N,N-diethyl-dithiocarbamates: a novel class of antitumor agents” (Bioorg Med Chem Lett, 2000)
